Experimental findings from patent publication US4127576A, “Nortropine-carbazate derivatives” (Egyt Gyogyszervegyeszeti Gyar, priority 1976, dated 1978) are described below.

For orientation: LD50 means the dose expected to kill half of the subjects tested. For orientation: ED50 means the dose that gives a 50% effect, or the effect in half of the subjects.

Series [1] has as its system mice. As to the kind of experiment: hypermotility provoked with amphetamine in mice (light interruption). In kind it is in vivo, mouse. The procedure:
(§1) The effect of 8-phenoxycarbonyl-3-hydrazinocarbonyl-oxy-nortropane exerted on the motilities of mice was tested according to the method of Borsy et al. (Arch. Int. Pharmacodyn. 124, 1- 2/1960/). The compound was administered orally in dosages of 20 to 80 mg/kg.
The above test method was applied also to study how 8-phenoxycarbonyl-3-hydrazinocarbonyloxy-nortropane does influence the hypermotility provoked with amphetamine (2-amino-1-phenyl-propane). Amphetamine was administered subcutaneously to mice in dosages of 7.5 mg/kg.

In series [2] the test system is rats. In words: hypermotility provoked with amphetamine in rats (method of Janssen). The series is classed as in vivo, rat. The procedure: The effect of 8-phenoxycarbonyl-3-hydrazinocarbonyloxy-nortropane exerted on the hypermotility provoked with amphetamine on rats was examined by the method of Janssen (Psychopharmacologia 1, 389- 392/1960/). The stimulation of central nervous system was provoked with subcutaneous dosages of 7.5 mg/kg of amphetamine. The tests were performed on groups each consisting of 10 rats.

Series [3] in a line: toxicity test on rats, observation for 7 days. The settings on record: rat, in vivo, po. The procedure: (§2) The toxicities and narcosis potentiating effects of the novel compounds having the general formula (I) were studied on rats weighing 120 to 150 g. In the toxicity tests the animals were kept under observation for 7 days. The narcosis potentiating effect was studied on animals treated with an intravenous dosage of 50 mg/kg of hexabarbital (5-/1-cyclohexenyl/-1',5-dimethylbarbituric acid), and the prolongation of sleeping period was recorded. A 150% prolongated of sleeping period in relation to the controls was regarded as positive response. The number of animals with positive responses was related to the total number of animals treated.

Series [4] has as its system rats. In words: narcosis potentiating effect (prolongation of hexabarbital sleeping period). The settings on record: Rattus norvegicus, po, read-out: ED50 (narcosis potentiating effect). In kind it is in vivo. The method, then: as §2
The test system of series [5] is mice. In words: effect on motility of mice (method of Borsy et al.). In kind it is in vivo, mouse. The settings on record: oral, 20 to 80 mg/kg. The method, then:
as §1

Setting [6] is: 0.9% saline 20 ml/kg p.o. + amphetamine 7.5 mg/kg s.c.
Setting [7] is: 0.9% saline 20 ml/kg s.c. + compound 40 mg/kg p.o., no amphetamine.
The mark [8] stands for this setting: compound 40 mg/kg p.o. + amphetamine 7.5 mg/kg s.c.

Where a name gives a salt, the structure may show the parent alone. Read-outs that look alike come from different tables or passages of the source. A value given as a limit tells only on which side of the number the result lay.

As to `CC(N)Cc1ccccc1` (stereo not drawn) [Amphetamine, 2-amino-1-phenyl-propane, reference compound], the “Light interruption (average)” value with mice [1] (amphetamine 7.5 mg/kg s.c. + 5% carboxymethylcellulose solution) worked out at 583. Further, in the series with rats [2] (setting [6]), the “Rearing (average)” value came to 28.6, the “Triangle walked in (average)” value amounted to 28.5 and the “Washing (average)” value was determined as 2.7.
As to `CN(C)CCCN1c2ccccc2Sc2ccc(Cl)cc21` [Chloropromazine, 2-chloro-10-/3-dimethylaminopropyl/-phenothiazine, reference compound], in series [3], the LD50 at 168 h turned out to be 210 mg/kg. The ED50 in the series with rats [4] (rats, hexabarbital 50 mg/kg i.v., 150% prolongation of sleeping period = positive response) was 4.7 mg/kg.
For `CCOC(=O)N1[C@@H]2CC[C@H]1C[C@@H](OC(=O)NN)C2` [Example 1, 8-Ethoxycarbonyl-3α-hydrazinocarbonyloxy-nortropane hydrochloride], the LD50 at 168 h in series [3] was more than 2000 mg/kg. Moreover, in the series with rats [4], the ED50 is 0.54 mg/kg.
`NNC(=O)O[C@H]1C[C@H]2CC[C@@H](C1)N2C(=O)Oc1ccccc1` [Example 3, 8-Phenoxycarbonyl-3α-hydrazinocarbonyloxy-nortropane]: the LD50 at 168 h in series [3] worked out at 5000 mg/kg. Further, the ED50 in the series with rats [4] amounted to 3 mg/kg. The influence on motility entry in the series on mice [5] is given as “did not influence the motilities”. In the series on mice [1] (amphetamine 7.5 mg/kg s.c. + compound 40 mg/kg p.o.), the “Light interruption (average)” value came to 270. Moreover, the “Light interruption (average)” value with mice [1] (amphetamine 7.5 mg/kg s.c. + compound 80 mg/kg p.o.) is given as 175. Also, the “inhibition of locomotor stimulating effect of amphetamine” value in the series on mice [1] (mice, both dosages examined (40 and 80 mg/kg p.o.)) is listed as “completely inhibited”. In the series on rats [2] (setting [7]), the “Rearing (average)” value is 11.8, the “Triangle walked in (average)” value came out at 16.1 and the “Washing (average)” value was 3.3. For the same molecule, in the series on rats [2] (setting [8]), the “Rearing (average)” value was determined as 21.5, the “Triangle walked in (average)” value was found to be 14.5 and the “Washing (average)” value worked out at 0.6.
As to `CC(=O)N(NC(=O)OC1CC2CCC(C1)N2C(=O)Oc1ccccc1)C(C)=O` (stereo not drawn) [Example 14, 8-Phenoxycarbonyl-3α-(2',2'-diacetyl-hydrazinocarbonyloxy)-nortropane], the LD50 at 168 h in series [3] was more than 1200 mg/kg. For the same molecule, the ED50 in the series on rats [4] is 1 mg/kg.
Regarding `O=C(CCCN1CCC(O)(c2ccc(Cl)cc2)CC1)c1ccc(F)cc1` [Haloperidol, 4-(4-chlorophenyl/-4-hydroxy-piperidyl)-4'-fluoro-butyrophenone, reference compound], the LD50 at 168 h in series [3] stood at 450 mg/kg. Also, the ED50 in the series with rats [4] turned out to be 2.8 mg/kg.
